Source: patent US6780853B1, “Neuroactive steroids of the androstane and pregnane series” (priority 1995, dated 2004)
Where two headings read alike, the source gives them in different places.

Columns and labels:
[1] = test system: metrazol induced convulsions; settings: cited from earlier work
[2] = test system: STR (strychnine) convulsions; settings: cited from earlier work
[3] = test system: maximal electroshock tonic seizure; settings: cited from earlier work
[4] = test system: BIC (bicuclline) convulsions; settings: cited from earlier work
[5] = test system: TBPS; settings: data from Swinyard & Woodhead 1982; cited from earlier work
[6] = data from Swinyard & Woodhead 1982; cited from earlier work
[7] = target: T1, Mineralocorticoid Receptors (Rattus norvegicus, UniProt P22199); experiment: Inhibition of 3H-Aldosterone Binding to Hippocampal Mineralocorticoid Receptors; settings: competitor 10^−6M; 3 nM 3H-aldosterone, RU28362 0.5 μM
T1 construct: To isolate the mineralocorticoid receptor, brain cytosol fractions were prepared; from tissue; host or cells: brain (hippocampal) cytosol of adrenalectomized rats
T1 sequence (P22199 1-981): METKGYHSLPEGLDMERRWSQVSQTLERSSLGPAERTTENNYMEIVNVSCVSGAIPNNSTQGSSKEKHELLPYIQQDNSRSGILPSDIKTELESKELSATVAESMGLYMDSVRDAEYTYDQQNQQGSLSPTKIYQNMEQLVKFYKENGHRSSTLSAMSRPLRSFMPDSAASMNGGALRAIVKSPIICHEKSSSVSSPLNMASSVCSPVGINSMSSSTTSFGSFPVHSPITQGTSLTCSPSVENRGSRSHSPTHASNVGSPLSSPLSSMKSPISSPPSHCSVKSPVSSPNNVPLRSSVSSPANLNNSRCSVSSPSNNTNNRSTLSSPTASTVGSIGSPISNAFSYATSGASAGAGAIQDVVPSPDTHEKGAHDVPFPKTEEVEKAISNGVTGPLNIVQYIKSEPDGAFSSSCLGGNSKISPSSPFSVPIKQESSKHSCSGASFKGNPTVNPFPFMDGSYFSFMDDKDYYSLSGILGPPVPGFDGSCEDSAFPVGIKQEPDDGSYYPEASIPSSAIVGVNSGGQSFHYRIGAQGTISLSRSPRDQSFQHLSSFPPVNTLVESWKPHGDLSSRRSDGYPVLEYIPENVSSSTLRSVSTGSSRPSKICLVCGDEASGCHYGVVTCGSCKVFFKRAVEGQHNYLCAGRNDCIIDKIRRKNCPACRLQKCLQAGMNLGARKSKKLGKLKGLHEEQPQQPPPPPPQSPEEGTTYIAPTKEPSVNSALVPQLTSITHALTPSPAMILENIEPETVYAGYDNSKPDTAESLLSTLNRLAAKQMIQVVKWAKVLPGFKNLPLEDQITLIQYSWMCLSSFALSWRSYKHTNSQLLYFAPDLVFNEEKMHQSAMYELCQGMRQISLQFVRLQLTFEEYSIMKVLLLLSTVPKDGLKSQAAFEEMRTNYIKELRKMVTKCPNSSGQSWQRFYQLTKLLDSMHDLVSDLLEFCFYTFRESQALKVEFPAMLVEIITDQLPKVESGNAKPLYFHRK
Procedure: (§1) Various hormonal activities of representative neuroactive steroids were further studied through testing their potential estrogenic, mineralocorticoid and glucocorticoid activities. These activities were analyzed by monitoring the ability of the compounds to inhibit binding of the steroid hormones to their respective hormone receptors.
In Table 4, rats were adrenalectornized 3 days prior to sacrifice.

[8] = target: T2, Glucocorticoid Receptors (Rattus norvegicus, UniProt P06536); experiment: Inhibition of 3H-Dexamethasone Binding to Glucocorticoid Receptors; settings: competitor 10^−6M; 3 nM 3H-dexamethasone
T2 construct: from tissue; host or cells: rat brain cytosol
T2 sequence (P06536 1-795): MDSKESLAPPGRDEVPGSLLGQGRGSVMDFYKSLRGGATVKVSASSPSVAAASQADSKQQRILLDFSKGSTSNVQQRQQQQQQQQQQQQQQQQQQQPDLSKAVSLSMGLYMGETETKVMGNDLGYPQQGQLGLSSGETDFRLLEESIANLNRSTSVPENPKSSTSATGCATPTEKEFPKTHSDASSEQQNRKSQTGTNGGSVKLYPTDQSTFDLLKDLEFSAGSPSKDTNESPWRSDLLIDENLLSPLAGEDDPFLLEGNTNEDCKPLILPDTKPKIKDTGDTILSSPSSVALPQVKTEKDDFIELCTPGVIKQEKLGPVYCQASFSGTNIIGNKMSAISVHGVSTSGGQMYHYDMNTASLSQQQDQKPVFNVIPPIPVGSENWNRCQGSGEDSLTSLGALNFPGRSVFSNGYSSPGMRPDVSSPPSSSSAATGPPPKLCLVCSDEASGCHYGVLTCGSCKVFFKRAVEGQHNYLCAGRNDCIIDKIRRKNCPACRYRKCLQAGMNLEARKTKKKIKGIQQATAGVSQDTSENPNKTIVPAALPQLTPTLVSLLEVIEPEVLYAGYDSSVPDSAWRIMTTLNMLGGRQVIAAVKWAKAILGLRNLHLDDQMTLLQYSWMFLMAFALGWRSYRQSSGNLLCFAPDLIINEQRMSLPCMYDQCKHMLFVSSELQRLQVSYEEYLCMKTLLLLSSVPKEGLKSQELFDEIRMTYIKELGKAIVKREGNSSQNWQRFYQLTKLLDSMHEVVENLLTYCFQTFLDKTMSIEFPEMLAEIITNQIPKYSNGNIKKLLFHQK
Procedure: as §1
For Table 4, brain cytosol fractions were prepared as for Table 3, and the compounds were incubated with 3 nM of ^3H-dexamethasone (the specific ligand for the glucocorticoid receptor).

[9] = test system: Progesterone Receptors; experiment: Inhibition of 3H-Progesterone Binding to the Bovine Uteral Progesterone Receptors; settings: competitor 10^−6M; 3H-progesterone 0.15 nM
[10] = target: T3, Estrogen Receptors (Bos taurus, UniProt P49884); experiment: Inhibition of 3H-Estradiol Binding to Bovine Uteral Estrogen Receptors; settings: competitor 10^−6M; 3H-estradiol 0.15 nM
T3 construct: from tissue; host or cells: bovine uterus cytosol
T3 sequence (P49884 1-596): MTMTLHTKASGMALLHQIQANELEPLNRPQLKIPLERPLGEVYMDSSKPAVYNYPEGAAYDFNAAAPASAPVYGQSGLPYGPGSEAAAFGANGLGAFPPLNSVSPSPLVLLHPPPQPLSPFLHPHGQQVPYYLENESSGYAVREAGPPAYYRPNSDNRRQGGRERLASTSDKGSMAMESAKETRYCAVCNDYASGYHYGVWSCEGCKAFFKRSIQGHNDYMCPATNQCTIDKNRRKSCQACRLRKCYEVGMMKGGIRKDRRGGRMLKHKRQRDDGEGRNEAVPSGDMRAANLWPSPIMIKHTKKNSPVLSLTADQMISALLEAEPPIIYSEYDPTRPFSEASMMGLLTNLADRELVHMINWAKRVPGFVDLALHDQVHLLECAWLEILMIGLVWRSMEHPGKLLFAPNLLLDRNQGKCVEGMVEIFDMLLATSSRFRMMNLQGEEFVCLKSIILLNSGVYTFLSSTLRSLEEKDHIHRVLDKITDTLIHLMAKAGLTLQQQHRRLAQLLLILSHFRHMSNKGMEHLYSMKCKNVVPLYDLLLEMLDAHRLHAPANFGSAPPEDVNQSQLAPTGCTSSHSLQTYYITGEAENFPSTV
Procedure: as §1

[11] = test system: maximal electroshock tonic seizure; experiment: Maximal electroshock test; assay type: in vivo, mice; settings: Mus musculus, ip, 50% hydroxypropyl-β-cyclodextrin
Source text: (§2) The anticonvulsant tests are similar to that described above.

[12] = test system: hormonal activity; experiment: Hormonal activity in vivo; parameters: species or system animals
Source text: Thus, they wil not have the hormonal side-effects which would be associated with binding to such steroid receptors.

[13] = test system: metrazol induced convulsions; experiment: Antimetrazol activity in mice; assay type: in vivo; settings: Mus musculus; steroid i.p., convulsant s.c., 50% hydroxypropyl-β-cyclodextrin
Summary of the method: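 Mice dosed with test compounds at various doses 10 minutes before metrazol (85 mg/kg) injection. Each animal observed for 30 minutes, recording time to onset of myoclonus (forelimb clonic activity).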

[14] = test system: BIC (bicuclline) convulsions; experiment: Chemical convulsant test, BIC; assay type: in vivo, mice; settings: Mus musculus; steroid i.p., convulsant s.c., 50% hydroxypropyl-β-cyclodextrin
Source text: as §2

[15] = test system: STR (strychnine) convulsions; experiment: Chemical convulsant test, strychnine; assay type: in vivo, mice; settings: Mus musculus, read-out: ED50 STR
Source text: as §2

[16] = test system: TBPS; experiment: Chemical convulsant test, column TBPS; assay type: in vivo, mice; settings: Mus musculus, read-out: ED50 TBPS
Source text: as §2

[17] = Rotorod test (general CNS depression potential); parameters: species or system mice; settings: mouse, in vivo, ip, 50% hydroxypropyl-β-cyclodextrin
Source text: as §2

[18] = convulsant i.v., data from Worms et al. 1982
[19] = data from Swinyard & Woodhead 1982

Compound: NC(=O)CCC/N=C(\c1ccc(Cl)cc1)c1cc(F)ccc1O [Progabide]
- ED50 PTZ [1, 18]: 30 mg/kg
- ED50 STR [2, 18]: 75 mg/kg
- ED50 MES ([3]; data from Worms et al. 1982): 75 mg/kg
- ED50 BIC [4, 18]: 30 mg/kg

Compound: O=C1CN=C(c2ccccc2Cl)c2cc([N+](=O)[O-])ccc2N1 [Clonazepam]
- ED50 PTZ [1, 19]: 0.025 mg/kg
- ED50 TBPS [5]: 205 mg/kg
- ED50 STR [2, 19]: >300 mg/kg
- ED50 RR [6]: 0.184 mg/kg
- ED50 MES [3, 19]: 111 mg/kg
- ED50 BIC [4, 19]: 0.0046 mg/kg

Compound: CC(C)(O)[C@H]1CC[C@H]2[C@@H]3CC[C@H]4C[C@H](O)CC[C@]4(C)[C@H]3CC[C@]12C [5α-pregnan-20-dimethyl-3α,20-diol, 5α-pregnan-20-dimethyl-3α,20-diol]
- % of Inhibition [7]: 0%
- % of Inhibition [8]: 2.6%
- % of Inhibition [9]: 0%
- % of Inhibition [10]: 0%

Compound: C[C@]12CC[C@@H](O)C[C@H]1CC[C@@H]1[C@@H]2CC[C@]2(C)[C@@H](C(=O)CO)CC[C@@H]12 [5β-pregnan-3α,21-diol-20-one, 5β-pregnan-3α,21-diol-20-one]
- % of Inhibition [7]: 13.8%
- % of Inhibition [8]: 8.2%
- % of Inhibition [9]: 6%
- % of Inhibition [10]: 0%

Compound: CC(=O)[C@H]1CC[C@H]2[C@@H]3CC[C@H]4C[C@](C)(O)CC[C@]4(C)[C@H]3CC[C@]12C [5α-pregnan-3α-ol-3β-methyl-20-one, 3α-hydroxy-3β-methyl-5α-pregnan-20-one]
- ED50 [11]: 29.7 mg/kg
- hormonal activity when given to animals in vivo [12]: not to have any hormonal activity
- ED50 [13]: 4.3 mg/kg
- ED50 [14]: 4.6 mg/kg
- ED50 [15]: > 40 mg/kg
- % of Inhibition [9]: 4%
- ED50 [16]: 11.7 mg/kg
- ED50 at 10 min [17]: 33.4 mg/kg
